These results are taken from patent US20240092784A1, “CONDENSED HETEROCYCLIC COMPOUND” (NISSAN CHEMICAL CORPORATION, priority 2020, published 2024).

Where a name gives a salt, the structure may show the parent alone.

Sequence of human SPR (P35270 whole entry): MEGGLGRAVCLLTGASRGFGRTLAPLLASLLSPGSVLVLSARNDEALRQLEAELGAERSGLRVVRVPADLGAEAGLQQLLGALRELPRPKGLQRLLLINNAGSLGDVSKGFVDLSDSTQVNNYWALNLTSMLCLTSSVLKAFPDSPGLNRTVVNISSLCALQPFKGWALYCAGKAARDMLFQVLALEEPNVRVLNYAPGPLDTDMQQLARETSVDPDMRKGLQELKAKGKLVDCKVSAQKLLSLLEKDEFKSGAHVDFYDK

The first assay has as its target human SPR (Homo sapiens (Human), UniProt P35270). Nature of the assay: Evaluation Example 2: Measurement of human SPR inhibitory activity (seven concentrations, sepiapterin absorbance at 420 nm). To be noted: Evaluation Example 2, seven concentrations 0.14 nM to 100 nM, 240 minutes at room temperature, read-out: IC50. The class given is biochemical. Summed up:
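Reactions ran 240 min at room temperature in 100 mM Tris-HCl pH 7.5 with 0.01% BSA. They contained tag-cleaved, E. coli-expressed full-length human SPR (diluted to 150 ng/mL), seven compound concentrations from 0.14 to 100 nM, and sepiapterin/NADPH added as a 120 μM/160 μM solution. Inhibition was calculated from sepiapterin absorbance at 420 nm.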
As to `CC(C)Cn1c(=O)c(C(=O)NC2CC2)c(O)n2ncc(/C=C/C(=O)NC3(C)CCOCC3)c12` [compound 492, (E)-N-Cyclopropyl-7-hydroxy-4-isobutyl-3-(3-((4-methyltetrahydro-2H-pyran-4-yl)amino)-3-oxoprop-1-en-1-yl)-5-oxo-4,5-dihydropyrazolo[1,5-a]pyrimidine-6-carboxamide], the IC50 came to 0.89 nM.

As for `CC(C)(C)Cn1c(=O)c(C(=O)NC2CC2)c(O)n2nc(Nc3cc(C#N)ncn3)cc12` [Synthesis Example 329, 2-((6-Cyanopyrimidin-4-yl)amino)-N-cyclopropyl-7-hydroxy-4-neopentyl-5-oxo-4,5-dihydropyrazolo[1,5-a]pyrimidine-6-carboxamide], the IC50 came to 1.69 nM.

Regarding `CC(C)Cn1c(=O)c(C(=O)NC2CC2)c(O)n2nc(N)c(/C=C/C(=O)N3CCOC[C@H]3C)c12` [Synthesis Example 418, (R,E)-2-Amino-N-cyclopropyl-7-hydroxy-4-isobutyl-3-(3-(3-methylmorpholino)-3-oxoprop-1-en-1-yl)-5-oxo-4,5-dihydropyrazolo[1,5-a]pyrimidine-6-carboxamide hydrochloride], the IC50 was 0.61 nM.

Consider `CC(C)Cn1c(=O)c(C(=O)NC2CC2)c(O)n2ncc(C#N)c12` [Synthesis Example 261, 3-Cyano-N-cyclopropyl-7-hydroxy-4-isobutyl-5-oxo-4,5-dihydropyrazolo[1,5-a]pyrimidine-6-carboxamide], for which the IC50 turned out to be 2.27 nM.

In the case of `CC1(Cn2c(=O)c(C(=O)NC3CC3)c(O)n3ncc(/C=C/C(=O)N4C[C@H]5C[C@@H]4CO5)c23)CC1` [Synthesis Example 373], the IC50 is 0.74 nM.

Regarding `Cc1nn2c(O)c(C(=O)NC3CC3)c(=O)n(CC(C)C)c2c1/C=C/C(=O)N1CCC[C@H]1C(F)F` [Synthesis Example 634, (S,E)-N-Cyclopropyl-3-(3-(2-(difluoromethyl)pyrrolidin-1-yl)-3-oxoprop-1-en-1-yl)-7-hydroxy-4-isobutyl-2-methyl-5-oxo-4,5-dihydropyrazolo[1,5-a]pyrimidine-6-carboxamide], the IC50 amounted to 1.21 nM.

For the compound `CC(C)Cn1c(=O)c(C(=O)NC2CC2)c(O)n2ncc(/C=C/C(=O)N3CCC[C@@H]3C(C)(C)O)c12` [compound 589, (R,E)-N-Cyclopropyl-7-hydroxy-3-(3-(2-(2-hydroxypropan-2-yl)pyrrolidin-1-yl)-3-oxoprop-1-en-1-yl)-4-isobutyl-5-oxo-4,5-dihydropyrazolo[1,5-a]pyrimidine-6-carboxamide], the IC50 stood at 1.34 nM.

As to `CC(C)Cn1c(=O)c(C(=O)NC2CC2)c(O)n2ncc(/C=C/C(=O)N3CCO[C@H](CO)C3)c12` [compound 521, (S,E)-N-Cyclopropyl-7-hydroxy-3-(3-(2-(hydroxymethyl)morpholino)-3-oxoprop-1-en-1-yl)-4-isobutyl-5-oxo-4,5-dihydropyrazolo[1,5-a]pyrimidine-6-carboxamide], the IC50 was found to be 0.59 nM.

On to `CC[C@H]1COCCN1C(=O)/C=C/c1c(C)nn2c(O)c(C(=O)NC3CC3)c(=O)n(CC(C)C)c12` [Synthesis Example 659, (S,E)-N-Cyclopropyl-3-(3-(3-ethylmorpholino)-3-oxoprop-1-en-1-yl)-7-hydroxy-4-isobutyl-2-methyl-5-oxo-4,5-dihydropyrazolo[1,5-a]pyrimidine-6-carboxamide], for which the IC50 was determined as 0.83 nM.

With `Cc1nn2c(O)c(C(=O)NC3CC3)c(=O)n(CC(C)C)c2c1/C=C/C(=O)N1CCCC12CCN(C)CC2` [Synthesis Example 664, (E)-N-Cyclopropyl-7-hydroxy-4-isobutyl-2-methyl-3-(3-(8-methyl-1,8-diazaspiro[4.5]decan-1-yl)-3-oxoprop-1-en-1-yl)-5-oxo-4,5-dihydropyrazolo[1,5-a]pyrimidine-6-carboxamide], the IC50 turned out to be 0.77 nM.

In the case of `CC(C)(C)Cn1c(=O)c(C(=O)NC2CC2)c(O)n2nc(-c3cccnc3F)cc12` [Synthesis Example 283, N-Cyclopropyl-2-(2-fluoropyridine-3-yl)-7-hydroxy-4-neopentyl-5-oxo-4,5-dihydropyrazolo[1,5-a]pyrimidine-6-carboxamide], the IC50 worked out at 2.35 nM.

For the compound `CC(C)Cn1c(=O)c(C(=O)NC2CC2)c(O)n2nc(N)c(/C=C/C(=O)N3C4CCCC3COC4)c12` [Synthesis Example 423, (E)-3-(3-(3-Oxa-9-azabicyclo[3.3.1]nonan-9-yl)-3-oxoprop-1-en-1-yl)-2-amino-N-cyclopropyl-7-hydroxy-4-isobutyl-5-oxo-4,5-dihydropyrazolo[1,5-a]pyrimidine-6-carboxamide hydrochloride], the IC50 was 0.71 nM.

For the compound `Cc1nn2c(O)c(C(=O)NC3CC3)c(=O)n(CC(C)C)c2c1/C=C/C(=O)N1CCOc2ncccc21` [Synthesis Example 676, (E)-N-Cyclopropyl-3-(3-(2,3-dihydro-1H-pyrido[2,3-b][1,4]oxazin-1-yl)-3-oxoprop-1-en-1-yl)-7-hydroxy-4-isobutyl-2-methyl-5-oxo-4,5-dihydropyrazolo[1,5-a]pyrimidine-6-carboxamide], the IC50 amounted to 0.91 nM.

Regarding `CC(C)(C)Cn1c(=O)c(C(=O)NC2CC2)c(O)n2nc(-c3[nH]ncc3Cl)cc12` [Synthesis Example 305, 2-(4-Chloro-1H-pyrazol-5-yl)-N-cyclopropyl-7-hydroxy-4-neopentyl-5-oxo-4,5-dihydropyrazolo[1,5-a]pyrimidine-6-carboxamide], the IC50 came out at 2.24 nM.

`CC(C)(C)Cn1c(=O)c(C(=O)NC2CC2)c(O)n2nc(-c3[nH]ncc3C(=O)N3CCC(F)(F)C3)cc12` [Synthesis Example 316, N-Cyclopropyl-2-(4-(3,3-difluoropyrrolidine-1-carbonyl)-1H-pyrazol-5-yl)-7-hydroxy-4-neopentyl-5-oxo-4,5-dihydropyrazolo[1,5-a]pyrimidine-6-carboxamide hydrochloride]: the IC50 amounted to 0.9 nM.

As for `Cc1nn2c(O)c(C(=O)NC3CC3)c(=O)n(CC(C)C)c2c1/C=C/C(=O)N(C)Cc1cnccn1` [Synthesis Example 636, (E)-N-Cyclopropyl-7-hydroxy-4-isobutyl-2-methyl-3-(3-(methyl(pyrazin-2-ylmethyl)amino)-3-oxoprop-1-en-1-yl)-5-oxo-4,5-dihydropyrazolo[1,5-a]pyrimidine-6-carboxamide], the IC50 turned out to be 1.47 nM.

Turning to `CC(C)(C)Cn1c(=O)c(C(=O)NC2CC2)c(O)n2nc(NC3CCCCC3)cc12` [Synthesis Example 343, 2-(Cyclohexylamino)-N-cyclopropyl-7-hydroxy-4-neopentyl-5-oxo-4,5-dihydropyrazolo[1,5-a]pyrimidine-6-carboxamide], the IC50 was determined as 4.71 nM.

As for `CC(C)(C)Cn1c(=O)c(C(=O)NC2CC2)c(O)n2nc(N3CC[C@H](N)C3)cc12` [Synthesis Example 342, (S)-2-(3-Aminopyrrolidin-1-yl)-N-cyclopropyl-7-hydroxy-4-neopentyl-5-oxo-4,5-dihydropyrazolo[1,5-a]pyrimidine-6-carboxamide], the IC50 was determined as 2.31 nM.

In the case of `Cc1nn2c(O)c(C(=O)NC3CC3)c(=O)n(CC(C)C)c2c1/C=C/C(=O)N1CCc2cc(C#N)ccc21` [Synthesis Example 669, (E)-3-(3-(5-Cyanoindolin-1-yl)-3-oxoprop-1-en-1-yl)-N-cyclopropyl-7-hydroxy-4-isobutyl-2-methyl-5-oxo-4,5-dihydropyrazolo[1,5-a]pyrimidine-6-carboxamide], the IC50 is 1.84 nM.

For the compound `CC(C)Cn1c(=O)c(C(=O)NC2CC2)c(O)n2ncc(/C=C/C(=O)N(C)CC(F)(F)F)c12` [compound 509, (E)-N-Cyclopropyl-7-hydroxy-4-isobutyl-3-(3-(methyl(2,2,2-trifluoroethyl)amino)-3-oxoprop-1-en-1-yl)-5-oxo-4,5-dihydropyrazolo[1,5-a]pyrimidine-6-carboxamide], the IC50 came out at 0.92 nM.

With `CCc1nn2c(O)c(C(=O)NC3CC3)c(=O)n(CC(C)C)c2c1/C=C/C(=O)N1CCOC[C@@H]1C` [Synthesis Example 653, (S,E)-N-Cyclopropyl-2-ethyl-7-hydroxy-4-isobutyl-3-(3-(3-methylmorpholino)-3-oxoprop-1-en-1-yl)-5-oxo-4,5-dihydropyrazolo[1,5-a]pyrimidine-6-carboxamide], the IC50 turned out to be 0.74 nM.

As for `Cc1nn2c(O)c(C(=O)NC3CC3)c(=O)n(CC(C)C)c2c1/C=C/C(=O)N(C)Cc1ccn(C)n1` [Synthesis Example 639, (E)-N-Cyclopropyl-7-hydroxy-4-isobutyl-2-methyl-3-(3-(methyl((1-methyl-1H-pyrazol-3-yl)methyl)amino)-3-oxoprop-1-en-1-yl)-5-oxo-4,5-dihydropyrazolo[1,5-a]pyrimidine-6-carboxamide], the IC50 amounted to 1.06 nM.

In the case of `CC(C)Cn1c(=O)c(C(=O)NC2CC2)c(O)n2ncc(/C=C/C(=O)N3CCC[C@@H]3C(F)F)c12` [compound 601, (R,E)-N-Cyclopropyl-3-(3-(2-(difluoromethyl)pyrrolidin-1-yl)-3-oxoprop-1-en-1-yl)-7-hydroxy-4-isobutyl-5-oxo-4,5-dihydropyrazolo[1,5-a]pyrimidine-6-carboxamide], the IC50 was found to be 1.08 nM.

`CC(C)Cn1c(=O)c(C(=O)NC2CC2)c(O)n2ncc(/C=C/C(=O)N3CCO[C@H](C(F)(F)F)C3)c12` [compound 530, (S,E)-N-Cyclopropyl-7-hydroxy-4-isobutyl-5-oxo-3-(3-oxo-3-(2-(trifluoromethyl)morpholino)prop-1-en-1-yl)-4,5-dihydropyrazolo[1,5-a]pyrimidine-6-carboxamide]: the IC50 stood at 1.14 nM.

Still in this assay, the particulars now being: sepiapterin absorbance, Table 41, read-out: concentration at 50% inhibition of human SPR (IC50).
`CCN1CCN(C(=O)/C=C/c2c(C)nn3c(O)c(C(=O)NC4CC4)c(=O)n(CC(C)C)c23)[C@H](C)C1` [Synthesis Example 751, (R,E)-N-Cyclopropyl-3-(3-(4-ethyl-2-methylpiperazin-1-yl)-3-oxoprop-1-en-1-yl)-7-hydroxy-4-isobutyl-2-methyl-5-oxo-4,5-dihydropyrazolo[1,5-a]pyrimidine-6-carboxamide]: the IC50 amounted to 1.34 nM.
